Laboratory results as given in patent US8829011B2 (Janssen Pharmaceutica NV, priority 2008, dated 2014).

Experiments:
[1] = target: T1, human recombinant 5-HT6 receptor (Homo sapiens, UniProt P50406); assay: Affinity for 5-HT6 receptor binding sites (competitive radioligand binding, [3H]LSD); details: membranes of HEK-293 with h5-HT6, * = tested as hydrochloride salt
T1 construct: expressed in transfected cells; host or cells: HEK-293
Description: (§1) Stock drug solutions (10 mM) were prepared in DMSO (the final assay concentration of DMSO not exceeding 0.4%). Drug dilutions were prepared in assay buffer.
(§2) Sigmoidal inhibition curves were generated and fitted by nonlinear regression analysis (GraphPad Prism).
3. Affinity for 5-HT6 Receptor Binding Sites
Receptor binding was performed using the human recombinant 5-HT6 (GB: BC0794995) receptor. The affinity of the compounds for the human 5-HT6 receptor was evaluated by competitive radioligand binding assays using [^3H]LSD. The assays were performed on membranes prepared from HEK-293 stably transfected with h5-HT6. Non-specific binding was estimated in the presence of 1 μM clozapine.

[2] = target: T2, human recombinant 5-HT2A receptor (Homo sapiens, UniProt P28223); assay: Affinity for 5-HT2A receptor binding sites (competitive radioligand binding, [3H]ketanserin); details: membranes of NIH3T3 with h5-HT2A, * = tested as hydrochloride salt
T2 construct: expressed in transfected cells; host or cells: NIH3T3
T2 sequence (P28223 whole entry): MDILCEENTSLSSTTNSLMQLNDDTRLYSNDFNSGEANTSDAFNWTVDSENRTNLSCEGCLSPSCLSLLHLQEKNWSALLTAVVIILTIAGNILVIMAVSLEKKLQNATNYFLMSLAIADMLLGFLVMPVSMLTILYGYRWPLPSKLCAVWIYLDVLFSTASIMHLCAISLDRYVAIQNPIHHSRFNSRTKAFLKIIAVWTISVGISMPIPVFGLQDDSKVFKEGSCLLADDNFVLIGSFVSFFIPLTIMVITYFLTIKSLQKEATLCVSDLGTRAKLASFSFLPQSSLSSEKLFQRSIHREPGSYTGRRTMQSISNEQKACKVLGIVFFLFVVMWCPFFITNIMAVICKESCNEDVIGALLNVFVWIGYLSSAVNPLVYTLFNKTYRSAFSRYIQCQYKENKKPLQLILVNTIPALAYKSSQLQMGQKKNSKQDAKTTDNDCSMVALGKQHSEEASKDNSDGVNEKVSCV
Description: as §1, §2
(§3) 2. Affinity for 5HT2 Receptor Binding Sites
(§4) Receptor binding was performed using the human recombinant 5-HT2A (GB: X57830), 5-HT2B (GB: Z36748) and 5-HT2C (GB: M81778) receptors. The affinity of the compounds for the 3 different human 5-HT2 receptor subtypes was evaluated by competitive radioligand binding assays using [^3H]ketanserin (h5-HT2A) or [^3H]mesulergine (h5-HT2B and h5-HT2C). The assays were performed on membranes prepared from NIH3T3 stably transfected with h5-HT2A or CHO stably transfected with h5-HT2B and h5-HT2C.

[3] = target: T3, human recombinant 5-HT2B receptor (Homo sapiens, UniProt P41595); assay: Affinity for 5-HT2B receptor binding sites (competitive radioligand binding, [3H]mesulergine); details: membranes of CHO with h5-HT2B, * = tested as hydrochloride salt
T3 construct: expressed in transfected cells; host or cells: CHO
T3 sequence (P41595 whole entry): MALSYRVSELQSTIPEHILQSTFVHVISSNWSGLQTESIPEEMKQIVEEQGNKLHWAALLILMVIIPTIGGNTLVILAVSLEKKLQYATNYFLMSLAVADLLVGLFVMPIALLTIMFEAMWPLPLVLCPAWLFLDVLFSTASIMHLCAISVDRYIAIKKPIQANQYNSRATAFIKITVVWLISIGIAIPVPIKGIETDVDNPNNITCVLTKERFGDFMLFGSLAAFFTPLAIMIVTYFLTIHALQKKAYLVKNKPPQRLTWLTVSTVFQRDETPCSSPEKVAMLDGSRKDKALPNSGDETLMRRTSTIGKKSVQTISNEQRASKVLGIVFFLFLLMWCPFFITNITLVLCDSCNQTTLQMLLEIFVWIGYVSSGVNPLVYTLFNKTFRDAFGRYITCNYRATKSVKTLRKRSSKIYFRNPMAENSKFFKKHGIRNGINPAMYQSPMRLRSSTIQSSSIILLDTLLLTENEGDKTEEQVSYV
Description: as §1, §2, §3, §4

[4] = target: T4, human recombinant 5-HT2C receptor (Homo sapiens, UniProt P28335); assay: Affinity for 5-HT2C receptor binding sites (competitive radioligand binding, [3H]mesulergine); details: membranes of CHO with h5-HT2C, * = tested as hydrochloride salt
T4 construct: expressed in transfected cells; host or cells: CHO
T4 sequence (P28335 33-458): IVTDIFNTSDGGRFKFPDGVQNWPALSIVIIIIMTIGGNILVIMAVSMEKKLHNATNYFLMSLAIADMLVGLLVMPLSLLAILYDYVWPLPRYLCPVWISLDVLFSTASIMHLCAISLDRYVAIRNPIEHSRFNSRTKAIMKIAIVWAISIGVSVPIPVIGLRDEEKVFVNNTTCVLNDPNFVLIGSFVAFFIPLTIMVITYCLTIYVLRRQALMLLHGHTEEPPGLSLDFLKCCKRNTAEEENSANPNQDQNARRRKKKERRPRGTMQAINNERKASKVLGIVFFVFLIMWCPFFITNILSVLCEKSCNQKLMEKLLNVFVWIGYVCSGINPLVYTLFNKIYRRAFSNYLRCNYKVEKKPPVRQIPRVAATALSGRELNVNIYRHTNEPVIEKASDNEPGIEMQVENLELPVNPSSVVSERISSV
Description: as §1, §2, §3, §4

T1 sequence (P50406 whole entry): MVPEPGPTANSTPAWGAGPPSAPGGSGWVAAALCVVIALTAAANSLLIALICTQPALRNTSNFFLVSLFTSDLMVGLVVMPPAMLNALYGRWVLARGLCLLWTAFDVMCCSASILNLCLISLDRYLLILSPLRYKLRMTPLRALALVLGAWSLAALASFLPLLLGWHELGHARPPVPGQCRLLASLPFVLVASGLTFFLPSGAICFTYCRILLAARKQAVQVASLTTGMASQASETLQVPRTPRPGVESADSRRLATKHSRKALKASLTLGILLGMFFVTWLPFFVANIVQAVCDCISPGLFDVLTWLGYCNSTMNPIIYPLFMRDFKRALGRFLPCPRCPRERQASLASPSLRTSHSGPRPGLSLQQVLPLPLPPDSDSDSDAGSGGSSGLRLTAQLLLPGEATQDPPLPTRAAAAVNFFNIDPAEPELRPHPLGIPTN

Ki [1] [µM] | Compound | Ki [2] [µM] | Ki [3] [µM] | Ki [4] [µM]
0.013 | Cc1ccc(-c2nc(N3CCC(F)CC3)nc3c2CCNCC3)cc1 [Example 69, 2-(4-fluoro-1-piperidinyl)-6,7,8,9-tetrahydro-4-(4-methylphenyl)-5H-pyrimido[4,5-d]azepine] | 0.035 | 0.005 | 0.005
0.051 | Cc1ccc(-c2nc(N3CCCC3C)nc3c2CCNCC3)cc1Cl (centres unmarked) [Example 77, 4-(3-chloro-4-methylphenyl)-6,7,8,9-tetrahydro-2-(2-methyl-1-pyrrolidinyl)-5H-pyrimido[4,5-d]azepine] | 0.077 | 0.009 | 0.033
0.092 | CC(C)c1ccc(-c2nc(N3CCS(=O)(=O)CC3)nc3c2CCNCC3)cc1 [Example 101, 2-(1,1-Dioxo-1λ^6-thiomorpholin-4-yl)-4-(4-isopropyl-phenyl)-6,7,8,9-tetrahydro-5H-pyrimido[4,5-d]azepine] |  | 0.65 | 3.78
0.0859 | Cc1ccc(-c2nc(N3CCCCC3)nc3c2CCNCC3)cc1Cl [Example 75, 4-(3-chloro-4-methylphenyl)-6,7,8,9-tetrahydro-2-(1-piperidinyl)-5H-pyrimido[4,5-d]azepine] |  |  | 
0.035 | COc1ccc(-c2nc(N3[C@H](C)CCC[C@@H]3C)nc3c2CCNCC3)cc1 [Example 82, 2-[(2R,6S)-2,6-dimethyl-1-piperidinyl]-6,7,8,9-tetrahydro-4-(4-methoxyphenyl)-5H-pyrimido[4,5-d]azepine] | 0.048 | 0.003 | 0.017
0.006 | Cc1ccc(-c2nc(N3CCOC[C@H]3C)nc3c2CCNCC3)cc1 [Example 100, 6,7,8,9-tetrahydro-2-[(3R)-3-methyl-4-morpholinyl]-4-(4-methylphenyl)-5H-pyrimido[4,5-d]azepine] | 0.021 | 0.008 | 0.004
0.042 | FC1(F)CCN(c2nc3c(c(-c4cnc5ccccc5c4)n2)CCNCC3)CC1 [Example 103, 2-(4,4-difluoro-1-piperidinyl)-6,7,8,9-tetrahydro-4-(3-quinolinyl)-5H-pyrimido[4,5-d]azepine] |  |  | 
0.088 | C[C@@H]1CCC[C@H](C)N1c1nc2c(c(-c3ccc(OC(F)(F)F)cc3)n1)CCNCC2 [Example 90, 2-[(2R,6S)-2,6-dimethyl-1-piperidinyl]-6,7,8,9-tetrahydro-4-[4-(trifluoromethoxy)phenyl]-5H-pyrimido[4,5-d]azepine] |  |  | 
0.014 | Cc1ccc(-c2nc(N3CCCCC3)nc3c2CCNCC3)cc1 [Example 78, 6,7,8,9-tetrahydro-4-(4-methylphenyl)-2-(1-piperidinyl)-5H-pyrimido[4,5-d]azepine] | 0.002 |  | 0.001
0.07 | c1ccc2ncc(-c3nc(N4CCOCC4)nc4c3CCNCC4)cc2c1 [Example 102, 2-Morpholin-4-yl-4-quinolin-3-yl-6,7,8,9-tetrahydro-5H-pyrimido[4,5-d]azepine] |  | 0.3 | 0.36
0.083 | COc1ccc(-c2nc(N3CCC(F)CC3)nc3c2CCNCC3)cc1 [Example 81, 2-(4-fluoro-1-piperidinyl)-6,7,8,9-tetrahydro-4-(4-methoxyphenyl)-5H-pyrimido[4,5-d]azepine] |  |  | 
0.082 | C[C@@H]1CCC[C@H](C)N1c1nc2c(c(-c3ccc4c(c3)OCCO4)n1)CCNCC2 [Example 87, 4-(2,3-dihydro-1,4-benzodioxin-6-yl)-2-[(2R,6S)-2,6-dimethyl-1-piperidinyl]-6,7,8,9-tetrahydro-5H-pyrimido[4,5-d]azepine] |  |  | 

The next lines start with the compound.

Compound | Ki [1] [µM] | Ki [2] [µM] | Ki [3] [µM] | Ki [4] [µM]
FC1CCN(c2nc3c(c(-c4ccc(Cl)c(Cl)c4)n2)CCNCC3)CC1 [Example 67, 4-(3,4-dichlorophenyl)-2-(4-fluoro-1-piperidinyl)-6,7,8,9-tetrahydro-5H-pyrimido[4,5-d]azepine] | 0.096 |  |  | 
CC1CCCN1c1nc2c(c(-c3ccc(Cl)cc3)n1)CNCCC2 (centres unmarked) [Example 53, 4-(4-Chloro-phenyl)-2-(2-methyl-pyrrolidin-1-yl)-6,7,8,9-tetrahydro-5H-1,3,6-triaza-benzocycloheptene] |  | 2 | 1.2 | > 10
Clc1ccc(-c2nc(N3CCOCC3)nc3c2CNCCC3)cc1 [Example 57, 4-(4-Chloro-phenyl)-2-morpholin-4-yl-6,7,8,9-tetrahydro-5H-1,3,6-triaza-benzocycloheptene] | 2.29 | 0.5 | > 10 | > 10
Cc1ccc(-c2nc(N3[C@H](C)CCC[C@@H]3C)nc3c2CCNCC3)cn1 [Example 86, 2-[(2R,6S)-2,6-dimethyl-1-piperidinyl]-6,7,8,9-tetrahydro-4-(6-methyl-3-pyridinyl)-5H-pyrimido[4,5-d]azepine] | 0.08 | 0.66 | 0.009 | 0.24
C[C@@H]1CCC[C@H](C)N1c1nc2c(c(-c3cnc4ccccc4c3)n1)CCNCC2 [Example 88, 2-[(2R,6S)-2,6-dimethyl-1-piperidinyl]-6,7,8,9-tetrahydro-4-(3-quinolinyl)-5H-pyrimido[4,5-d]azepine] | 0.012 | 0.23 | 0.064 | 0.6
Cc1ccc(-c2nc(N3CCS(=O)(=O)CC3)nc3c2CCNCC3)cc1 [Example 64, 2-(1,1-Dioxo-1λ^6-thiomorpholin-4-yl)-4-p-tolyl-6,7,8,9-tetrahydro-5H-pyrimido[4,5-d]azepine] | 0.029 | 0.52 | 0.62 | 1.26
CC(C)c1ccc(-c2nc(N3[C@H](C)CCC[C@@H]3C)nc3c2CCNCC3)cc1 [Example 91, 2-[(2R,6S)-2,6-dimethyl-1-piperidinyl]-6,7,8,9-tetrahydro-4-[4-(1-methylethyl)phenyl]-5H-pyrimido[4,5-d]azepine] | 0.041 | 0.16 | 0.006 | 0.045
COc1ccc(-c2nc(N3[C@H](C)CCC[C@@H]3C)nc3c2CCNCC3)cc1F [Example 89, 2-[(2R,6S)-2,6-dimethyl-1-piperidinyl]-4-(3-fluoro-4-methoxyphenyl)-6,7,8,9-tetrahydro-5H-pyrimido[4,5-d]azepine] | 0.035 | 0.18 | 0.003 | 0.033
C[C@@H]1CCC[C@H](C)N1c1nc2c(c(-c3ccc(Cl)c(Cl)c3)n1)CCNCC2 [Example 73, 4-(3,4-dichlorophenyl)-2-[(2R,6S)-2,6-dimethyl-1-piperidinyl]-6,7,8,9-tetrahydro-5H-pyrimido[4,5-d]azepine] | 0.062 | 0.17 | 0.007 | 0.038
Cc1ccc(-c2nc(N3CCS(=O)(=O)CC3)nc3c2CCN(C)CC3)cc1 [Example 65, 2-(1,1-Dioxo-1λ^6-thiomorpholin-4-yl)-7-methyl-4-p-tolyl-6,7,8,9-tetrahydro-5H-pyrimido[4,5-d]azepine] | 0.041 |  | 0.28 | 0.96
Clc1ccc(-c2nc(N3CCOCC3)nc3c2CCNCC3)cc1 [Example 58, 4-(4-Chloro-phenyl)-2-morpholin-4-yl-6,7,8,9-tetrahydro-5H-pyrimido[4,5-d]azepine] | 0.102 | 0.017 | 0.03 | 0.02
Cc1ccc(-c2nc(N3CCOC[C@@H]3C)nc3c2CCNCC3)cc1Cl [Example 93, 4-(3-chloro-4-methylphenyl)-6,7,8,9-tetrahydro-2-[(3S)-3-methyl-4-morpholinyl]-5H-pyrimido[4,5-d]azepine] | 0.009 | 0.15 | 0.018 | 0.028
Cc1ccc(-c2nc(N3CCS(=O)(=O)CC3)nc3c2CCNCC3)cc1Cl [Example 92, 4-(3-Chloro-4-methyl-phenyl)-2-(1,1-dioxo-1λ^6-thiomorpholin-4-yl)-6,7,8,9-tetrahydro-5H-pyrimido[4,5-d]azepine] | 0.085 | 1.14 | 0.95 | 2.04
Clc1ccc(-c2nc(NCc3ccccc3)nc3c2CNCCC3)cc1 [Example 55, Benzyl-[4-(4-chloro-phenyl)-6,7,8,9-tetrahydro-5H-1,3,6-triaza-benzocyclohepten-2-yl]-amine] |  | 0.05 | > 10 | 1.1
